US6960574B2, “Antagonists of RF-amide neuropeptides” (University of Florida, priority 2002, dated 2005)
Ends that are not written are not given here. Peptide text beside a SMILES is read from it. * marks the point of attachment. Dansyl = CN(C)c1cccc2c(S(=O)(=O)*)cccc12; Desaminotyrosyl = O=C(CCc1ccc(O)cc1)*

Legend:
[1] = Immobilized artificial membrane (IAM) chromatography; format: physicochemical
Excerpt: The purity of this new neuropeptide FF antagonist was confirmed by combustion analysis [Table 1] (data were within ±0.4% of calculated values) and ESI mass spectrometry (no impurities exceeding 1% based on relative ion abundance). […] The compounds were also characterized by immobilized artificial membrane (IAM) chromatography, a method that furnishes capacity factors whose logarithm generally correlates with in vivo absorption [Pidgeon, et al., J. Med. Chem. 1995, 38, 590-594] including penetration across the BBB [Reichel, et al., Pharm. Res. 1998, 15, 1270-1274].
The combinatorial libraries herein were prepared on a SynPep (Dublin, Calif.) multiple peptide synthesizer. A Synthor 2000, Peptide International (Louisville, Ky.) instrument was used for the preparation of the individual compounds by Fmoc chemistry. Immobilized artificial membrane (IAM) chromatography was performed on a system that included a model SP 8810 precision isocratic pump, an SP 8880 autosampler with a 20-μL injection loop, an SP 8450 variable wavelength UV/VIS detector operated at 254 nm, and SP 4290 computing integrator (all from ThermoSeparation|SpectraPhysics, Fremont, Calif.). RP-HPLC purification was done on a system composed of an SP 200 binary gradient pump (ThermoSeparation), a Rheodyne (Cotati, Calif.) model 7125 injector valve equipped with a 5-mL sample loop, and an SP 100 UV/VIS detector (ThermoSeparation) operated at 210 nm. Electrospray ionization (ESI) and tandem mass spectra were obtained on a quadrupole ion trap instrument (LCQ, Finnigan MAT, San Jose, Calif.). NMR spectra were recorded on Bruker AVANCE instruments (Bremen, Germany). Resonance frequencies were 500 and 600 MHz for ^1H and 127 MHz for ^13C. The samples were dissolved in H2O/D2O (8/2, v/v).

[2] = target: receptor labeled by the radioiodinated analogue of 1 (4, [125I]-YLFQPQRF-NH2); neuropeptide FF receptor; test: Competitive radioligand binding against 4 ([125I]Y8F-amide); details: for Ki: competition against 4
[3] = system: naloxone-precipitated withdrawal symptoms; details: cited from earlier work
[4] = target: receptor labeled by the radioiodinated analogue of 1 (4, [125I]-YLFQPQRF-NH2); neuropeptide FF receptor; details: CNS membrane preparation, literature value; cited from earlier work
[5] = system: abstinence-like signs induced by neuropeptide FF (1); details: cited from earlier work
[6] = after systemic administration; cited from earlier work
[7] = system: opiate abstinence syndrome; details: 2 μg i.c.v.; cited from earlier work

| Molecule | kIAM′ (IAM capacity factor) [1] | log kIAM′ [1] | Ki [2] | Relative Binding Index (RBI) ([2]; mixture-based positional scanning, difference from averaged radioligand displacement of whole library (0), about 80 a.u. = 10-fold change in Ki) | naloxone-precipitated withdrawal symptoms in morphine-dependent rats ([3]; administered subcutaneously) | inhibition constant (Ki) [4] | QMAS induced by 1 ([5]; rat, in vivo) | abstinence signs upon naloxone challenge in morphine-dependent animals ([3]; icv administration) | CNS bioavailability [6] | abstinence-like signs induced by 1 in opiate-naive rats ([5]; icv administration) | opiate abstinence syndrome in morphine-dependent rats [7] | quasi-morphine-abstinence syndrome (QMAS) in opiate-naive rats ([5]; 15 μg i.c.v.) |
| --- | --- | --- | --- | --- | --- | --- | --- | --- | --- | --- | --- | --- |
| CN(C)c1cccc2c(S(=O)(=O)N3CCCC3C(=O)NC(CCC(N)=O)C(=O)NC(CCCNC(=N)N)C(N)=O)cccc12 (stereo not drawn) [Compound 3, Dansyl-Pro-Gln-Arg-NH2, reference compound] (Dansyl-Pro-Gln-Arg-NH2; configuration not given here) | 5.9 | 0.77 | 13.6 µM | −34 a.u. | blunted | micromolar range | dose-dependently antagonized |  |  |  |  |  |
| Desaminotyrosyl-Phe-Leu-Phe-Gln-Pro-Gln-Arg-NH2 (Desaminotyrosyl-FLFQPQR-NH2; SMILES CC(C)C[C@H](NC(=O)[C@H](Cc1ccccc1)NC(=O)CCc1ccc(O)cc1)C(=O)N[C@@H](Cc1ccccc1)C(=O)N[C@@H](CCC(N)=O)C(=O)N1CCC[C@H]1C(=O)N[C@@H](CCC(N)=O)C(=O)N[C@@H](CCCNC(=N)N)C(N)=O) [Compound 2] |  |  | 0.84 ± 0.18 µM |  |  |  |  | attenuated | did not show any CNS bioavailability | attenuated |  |  |
| Phe-Leu-Phe-Gln-Pro-Gln-Arg-Phe-NH2 (FLFQPQRF-NH2) [Compound 1, endogenous neuropeptide FF] |  |  |  |  |  |  |  |  |  |  | precipitates | induces |
